Assay results from US20250325529A1, “INHIBITORS OF FATTY ACID BINDING PROTEINS (FABPs), METHODS OF USE AND METHODS OF MAKING” (Celloram, inc., priority 2024, published 2025).
Entries after “also recorded” stand apart in the source; their conditions may differ.

Columns and labels:
[1] = Single dose IV and PO PK study in Han Wistar rats; assay type: in vivo
Protocol: (§1) C57BL/6 male mice or Han Wistar rats were used, n=3 for each administration route and compound. Single dose of each compound was administered orally (PO, 10 mg/Kg) or by intravenous administration (IV, 1 mg/Kg). Following intravenous and oral administration, blood samples (ca 0.2 mL) were collected and compound amount was measured by HLPC. For IV group, blood samples were collected at 0.083, 0.25, 0.5, 1, 2, 4, 6, 8, and 24 hours post-dose. For PO group, blood samples were collected at 0.25, 0.5, 1, 2, 4, 6, 8, and 24 hours post-dose.

OVCAR5 cells = assay: Proliferation assay (Incucyte confluency), OVCAR5; assay type: cell-based, human; settings: 4 days
Protocol: (§2) COS-7, MDA-MB-231, and HepG2, were cultured in Dulbecco's modified Eagle's medium (DMEM) supplemented with 10% fetal bovine serum (Invitrogen Life Sciences, Carlsbad, CA). BT-549, OVCAR5 and OVCAR8 cells were cultured in L-Glutamine containing RPMI medium supplemented with 10% fetal calf serum (Invitrogen Life Sciences, Carlsbad, CA). The primary Human Mammary Epithelial Cells (HMEC) were cultured in mammary epithelial cell complete medium (basal medium plus rH-Insulin (5 μg/mL); L-Glutamine (6 mM); Epinephrine (1 μM); Apo-Transferrin (5 μg/mL); rH-TGF-α (0.5 ng/mL); ExtractP (0.4%); Hydrocortisone Hemisuccinate (100 ng/mL)).
(§3) 2000 cells were plated in each well of 96-well plate. The next day cells were treated with compounds and incubated in Incucyte for 4 days. Images taken every 4 hours for the duration of the time were analyzed to calculate percentage of confluency in response to the treatments. Growth inhibition was calculated as 1—(percentage of viable cells out of untreated cells).

[2] = system: Salmonella typhimurium tester strain TA1537; assay: Ames test (Bacterial Reverse Mutation Test), TA1537; assay type: cell-based
Protocol: PD152 (compound 2) was tested for genotoxic and cytotoxic side effects by Ames test. The Ames test is a Bacterial Reverse Mutation Test of mutagenicity that utilizes Salmonella typhimurium tester strains TA98, TA100, TA1535, TA1537 and Escherichia coli tester strain WP2 uvrA (pKM101), both in the presence and absence of S9.
The compound PD152 was tested at 10 concentrations (0.032-1000 μg/plate) in the presence of, or absence of, the hepatic enzyme S9.
The aniline FABP4/5 inhibitor compound, 2-((2-((2,4-dichloro-5-isopropoxyphenyl)amino)-2-oxoethyl)thio)-2-methylpropanoic acid (compound “B104” as disclosed in WO2023043803A1) also was tested for genotoxic and cytotoxic side effects by Ames test. […]

PPARα = PPARα (Homo sapiens (Human), UniProt Q07869); assay: Transcriptional activation assay in COS7 cells, PPARα; assay type: cell-based; settings: PPRE luciferase reporter, PD151 and PD152 at 10 μM
PPARα, sequence (Q07869 whole entry, species assumed): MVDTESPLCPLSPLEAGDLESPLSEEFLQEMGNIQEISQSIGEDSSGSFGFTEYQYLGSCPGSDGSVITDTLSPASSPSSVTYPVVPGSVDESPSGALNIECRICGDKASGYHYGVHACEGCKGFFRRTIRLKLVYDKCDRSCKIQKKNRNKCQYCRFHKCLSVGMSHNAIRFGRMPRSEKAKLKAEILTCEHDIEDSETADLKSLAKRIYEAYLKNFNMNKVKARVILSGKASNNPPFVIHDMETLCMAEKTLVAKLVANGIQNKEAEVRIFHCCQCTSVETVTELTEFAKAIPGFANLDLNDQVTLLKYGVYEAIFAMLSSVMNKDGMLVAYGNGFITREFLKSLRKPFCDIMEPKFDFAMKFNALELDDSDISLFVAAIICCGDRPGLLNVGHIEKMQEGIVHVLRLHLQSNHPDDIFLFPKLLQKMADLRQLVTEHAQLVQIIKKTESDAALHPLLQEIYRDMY
How it was run: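 COS-7 cells co-transfected with a 3×PPRE-luciferase reporter, receptor expression vector and β-galactosidase control plasmid; 18 h post-transfection, moved to serum-free medium and treated with compound for 18 h. Luciferase read from lysates, normalised to β-galactosidase activity.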

[3] = Single dose IV and PO PK study in C57BL/6 mice; assay type: in vivo; settings: male C57BL/6 mice
Protocol: as §1

BT-549 cells = assay: Proliferation assay (Incucyte confluency), BT-549; assay type: cell-based; settings: Homo sapiens, 96 h, 4 days, read-out: IC50, inhibition of proliferation
Protocol: as §2, §3

[4] = rat, plasma, intravenous 1 mg/kg
[5] = TA1537, absence of S9, 0.0312 μg/plate
[6] = TA1537, absence of S9, 0.1 μg/plate
[7] = TA1537, absence of S9, 0.316 μg/plate
[8] = TA1537, absence of S9, 1 μg/plate
[9] = TA1537, absence of S9, 3.16 μg/plate
[10] = TA1537, absence of S9, 10 μg/plate
[11] = TA1537, absence of S9, 31.6 μg/plate
[12] = TA1537, absence of S9, 100 μg/plate
[13] = TA1537, absence of S9, 316 μg/plate
[14] = TA1537, absence of S9, 1000 μg/plate
[15] = TA1537, presence of S9, 0.0312 μg/plate
[16] = TA1537, presence of S9, 0.1 μg/plate
[17] = TA1537, presence of S9, 0.316 μg/plate
[18] = TA1537, presence of S9, 1 μg/plate
[19] = TA1537, presence of S9, 3.16 μg/plate
[20] = TA1537, presence of S9, 10 μg/plate
[21] = TA1537, presence of S9, 31.6 μg/plate
[22] = TA1537, presence of S9, 100 μg/plate
[23] = TA1537, presence of S9, 316 μg/plate
[24] = TA1537, presence of S9, 1000 μg/plate
[25] = mouse, plasma, intravenous 1 mg/kg

In the case of `CC(C)Oc1nc(NC(=O)CSCC(=O)O)c(Cl)cc1Cl` [PD152, 2-((2-((3,5-dichloro-6-isopropoxypyridin-2-yl)amino)-2-oxoethyl)thio)acetic acid], the Thalf ([1]; oral 10 mg/kg) is reported as 1.13 h, the clearance [1, 4] is reported as 16 mL/min/kg and the half-life [1, 4] is reported as ~0.73 h. The bioavailability ([1]; rat, plasma, oral 10 mg/kg) was 141%, the “Inhibition of OVCAR5 proliferation” value (OVCAR5 cells) was “inhibited proliferation of the two cell lines in a dose-dependent manner” and the Fold increase [2, 5] was 1. The “Mean number of revertants” value [2, 5] was 3, the Fold increase [2, 6] was 1 and the “Mean number of revertants” value [2, 6] was 3. The Fold increase [2, 7] was 1, the “Mean number of revertants” value [2, 7] was 4 and the Fold increase [2, 8] was 1. The “Mean number of revertants” value [2, 8] was 3, the Fold increase [2, 9] was 1 and the “Mean number of revertants” value [2, 9] was 3. For the same molecule, the Fold increase [2, 10] was 1, the “Mean number of revertants” value [2, 10] was 3 and the Fold increase [2, 11] was 1. For the same molecule, the “Mean number of revertants” value [2, 11] was 4, the Fold increase [2, 12] was 1 and the “Mean number of revertants” value [2, 12] was 3. The Fold increase [2, 13] was 1, the “Mean number of revertants” value [2, 13] was 3 and the Fold increase [2, 14] was 1. The “Mean number of revertants” value [2, 14] was 3, the Fold increase [2, 15] was 1 and the “Mean number of revertants” value [2, 15] was 4. The Fold increase [2, 16] was 1, the “Mean number of revertants” value [2, 16] was 3 and the Fold increase [2, 17] was 1. The “Mean number of revertants” value [2, 17] was 3, the Fold increase [2, 18] was 1 and the “Mean number of revertants” value [2, 18] was 3. For the same molecule, the Fold increase [2, 19] was 1, the “Mean number of revertants” value [2, 19] was 3 and the Fold increase [2, 20] was 1. The “Mean number of revertants” value [2, 20] was 4, the Fold increase [2, 21] was 1 and the “Mean number of revertants” value [2, 21] was 3. For the same molecule, the Fold increase [2, 22] was 1, the “Mean number of revertants” value [2, 22] was 3 and the Fold increase [2, 23] was 1. For the same molecule, the “Mean number of revertants” value [2, 23] was 4, the Fold increase [2, 24] was 1 and the “Mean number of revertants” value [2, 24] was 4. For the same molecule, the “Activation of transcription by PPARα” value (PPARα) was “None of these tested compounds activated; also recorded: none of the tested compounds PD151 and PD152 activated transcription”, the Thalf ([3]; oral 10 mg/kg) was 2.6 h and the clearance [3, 25] was 16.1 mL/min/kg. It also gave a half-life [3, 25] of 3 to 4 h, a bioavailability ([3]; mouse, plasma, single oral dose 10 mg/kg) of 75% and an IC50 (BT-549 cells) of 1040 nM.
